Data reported in publication PMC11224357, “Green, facile synthesis and evaluation of unsymmetrical carbamide derivatives as antimicrobial and anticancer agents with mechanistic insights” (Scientific Reports, 2024).
In brackets after ≈: the same amount, converted by molar mass.

What was measured:
Klebsiella pneumonia [1] = assay: Agar well diffusion; type: cell-based; details: Klebsiella pneumoniae; Klebsiella pneumonia; 20 µg/mL; read-out: Inhibition Zone
Description: (§1) The antimicrobial efficiency of the synthesized unsymmetrical carbamide derivatives was screened using standard clinical pathogens derived from Department of Microbiology and Immunology, Faculty of Medicine (Boys), Al-Azhar University. The tested microbial pathogens used in this study were as follows, two Gram-positive bacteria (Bacillus subtilis, Staphylococcus aureus), two Gram-negative bacteria (Pseudomonas aerginousea, klebsiella pneumoniae) and two fungi (Candida albicans, Aspergillus fumgitus). Before each antimicrobial examination, pre-activation of each microbial pathogen was implemented using specific growth conditions. […] Consequently, each tested pathogen justified its inoculum size based on Colony Forming Units (CFU) to be closed to […] during all antimicrobial tests.

Pseudomonas aeruginosa [2] = assay: Agar well diffusion; type: cell-based; details: 20 µg/mL, read-out: Inhibition Zone
Description: as §1

Bacillus subtilis [3] = assay: Agar well diffusion; type: cell-based; details: 20 µg/mL, read-out: Inhibition Zone
Description: as §1

Aspergillus fumagitus [4] = assay: Agar well diffusion; type: cell-based; details: Aspergillus fumagitus; 20 µg/mL; read-out: Inhibition Zone
Description: (§2) The antimicrobial efficiency of the synthesized unsymmetrical carbamide derivatives was screened using standard clinical pathogens derived from Department of Microbiology and Immunology, Faculty of Medicine (Boys), Al-Azhar University. The tested microbial pathogens used in this study were as follows, two Gram-positive bacteria (Bacillus subtilis, Staphylococcus aureus), two Gram-negative bacteria (Pseudomonas aerginousea, klebsiella pneumoniae) and two fungi (Candida albicans, Aspergillus fumgitus). Before each antimicrobial examination, pre-activation of each microbial pathogen was implemented using specific growth conditions. For bacterial ones, preinoculum was prepared using Nuitrent broth medium (Codalab, Spain) at 37 °C for 24 h. while the fungal pathogens were activated using Potato Dextrose broth (Codalab, Spain) at 28 °C for 48 h. Consequently, each tested pathogen justified its inoculum size based on Colony Forming Units (CFU) to be closed to […] during all antimicrobial tests.

Candida albicans [5] = assay: Agar well diffusion; type: cell-based; details: 20 µg/mL, read-out: Inhibition Zone
Description: as §2

Klebsiella pneumonia [6] = assay: MIC by microdilution (CLSI); type: cell-based; details: Klebsiella pneumoniae, read-out: Minimum inhibitory concentration (MIC)
Method: (§3) In brief, a defined weight for each selected compound was dissolved in dimethylsulphoxide (DMSO) and used as a stock solution[29].

Pseudomonas aeruginosa [7] = assay: MIC by microdilution (CLSI); type: cell-based; details: read-out: Minimum inhibitory concentration (MIC)
Method: as §3

Bacillus subtilis [8] = assay: MIC by microdilution (CLSI); type: cell-based; details: read-out: Minimum inhibitory concentration (MIC)
Method: as §3

Staphylococcus aureus [9] = assay: MIC by microdilution (CLSI); type: cell-based; details: read-out: Minimum inhibitory concentration (MIC)
Method: as §3

Staphylococcus aureus [10] = assay: Agar well diffusion; type: cell-based
Description: as §1

MTT cytotoxicity assay = type: cell-based, human; details: human, BJ-1 normal skin fibroblast cells, BJ-1 normal cells
Method: (§4) The MTT 3-(4,5-dimethylthiazol-2-yl)-2,5-diphenyl-tetrazolium bromide (Bio Basic Canada Inc. Toronto, Canada) assay was used to assess cell viability. The procedures were carried out in a biosafety class II sterile laminar air flow cabinet (Baker, SG403INT; Sanford, ME, USA). […] Cells were seeded at a density of (10^4 cells/well) into 96-well micro titer polypropylene plates and left to adhere for 24 h. The media was aspirated and the test chemicals were given to the cells in a single dose of 100 µM in DMSO. After 48 h of incubation, 40 µL of MTT salt ([…]) was applied to each well. […] Instead of the tested substances, the medium was applied to the untreated cells (negative control). […] The testing substance was dissolved in dimethylsulfoxide (DMSO), and its final concentration in the cells was less than 0.2%. The solvent concentration was the same for all medications and between the control and drug treatments at the same dilution.

[11] = tested on: HCT-116 (human colon cancer); assay: MTT cytotoxicity assay; type: cell-based; details: 48 h; for IC50: HCT-116, MTT
Method: as §4

Aspergillus fumagitus [12] = assay: MIC by microdilution (CLSI); type: cell-based; details: read-out: Minimum inhibitory concentration (MIC)
Method: (§5) For this purpose, serial dilution of the potent compounds was carried out to obtain the desired concentrations (i.e. 10–400 µg/mL). In brief, a defined weight for each selected compound was dissolved in dimethylsulphoxide (DMSO) and used as a stock solution[29]. The determination of the MIC value for each targeted compound was known as the lowest concentration of each sample that yielded a minimum number of colony-forming units (CFU) compared to the untreated samples[28].

Candida albicans [13] = assay: MIC by microdilution (CLSI); type: cell-based; details: read-out: Minimum inhibitory concentration (MIC)
Method: as §5

[14] = tested on: MCF-7 (human breast cancer); assay: MTT cytotoxicity assay; type: cell-based; details: Homo sapiens, MCF-7, 48 h; for IC50: MCF7, 48 h, MTT
Method: as §4, with “The media was aspirated and the test chemicals were given to the cells in a single dose of 100 µM in DMSO.” left out

Compound	zone of inhibition at 20 µg/mL (Klebsiella pneumonia [1])	zone of inhibition at 20 µg/mL (Pseudomonas aeruginosa [2])	zone of inhibition at 20 µg/mL (Bacillus subtilis [3])	zone of inhibition at 20 µg/mL (Aspergillus fumagitus [4])	zone of inhibition at 20 µg/mL (Candida albicans [5])	zone of inhibition at 20 µg/mL (Staphylococcus aureus [10])	melting point	MIC (Aspergillus fumagitus [12])	MIC (Candida albicans [13])	further results
O=C(Nc1ccccc1)N1CCOCC1 [Compound 20, N-phenylmorpholine-4-carboxamide]	4 mm	3 mm	2 mm	2 mm	3 mm	–	–	–	–	–
CC1=C(C(=O)O)N2C(=O)[C@@H](NC(=O)[C@H](N)C3=CCC=CC3)[C@H]2SC1 [Cephradine, reference compound]	–	–	–	–	–	–	–	–	–	MIC (Klebsiella pneumonia [6]): > 400 µg/mL; MIC (Pseudomonas aeruginosa [7]): > 400 µg/mL; MIC (Bacillus subtilis [8]): 320 µg/mL (≈ 916 µM); MIC (Staphylococcus aureus [9]): > 400 µg/mL
Cc1ccc(S(=O)(=O)NC(=O)N2CCOCC2)cc1 [Compound 10, N-tosylmorpholine-4-carboxamide]	2 mm	–	2 mm	2 mm	–	4 mm	210 to 211 °C	–	–	cytotoxicity at 48 h, 100 µM (MTT cytotoxicity assay): 19.7%; IC50 [11]: 72.6 ± 0.13 µM; cytotoxicity at 100 µM ([11]; HCT-116, single dose 100 µM, read-out: Cytotoxicity (%)): ≥ 65%
Cc1ccc(NC(=O)N2CCCCC2)cc1 [Compound 17, N-(p-tolyl)piperidine-1-carboxamide]	3 mm	3 mm	5 mm	3 mm	2 mm	2 mm	230 to 232 °C	20 µg/mL (≈ 91.6 µM)	20 µg/mL (≈ 91.6 µM)	MIC (Klebsiella pneumonia [6]): 80 µg/mL (≈ 366 µM); MIC (Pseudomonas aeruginosa [7]): 40 µg/mL (≈ 183 µM); MIC (Bacillus subtilis [8]): 10 µg/mL (≈ 45.8 µM); MIC (Staphylococcus aureus [9]): 80 µg/mL (≈ 366 µM)
Cc1ccc(NC(=O)NC23CC4CC(CC(C4)C2)C3)cc1 [Compound 18, 1-(Adamantan-1-yl)-3-(p-tolyl)urea]	–	–	2 mm	3 mm	2 mm	–	180 to 182 °C	–	–	–
Cc1ccc(S(=O)(=O)NC(=O)N2CCN(C)CC2)cc1 [Compound 11, 4-Methyl-N-tosylpiperazine-1-carboxamide]	2 mm	–	–	–	–	2 mm	190 to 192 °C	–	–	–
Cc1ccc(S(=O)(=O)NC(=O)N2CCCCC2)cc1 [Compound 12, N-tosylpiperidine-1-carboxamide]	3 mm	–	–	–	2 mm	3 mm	232 to 235 °C	–	–	–
Cc1ccc(NC(=O)N2CCCC2)cc1 [Compound 14, N-(p-tolyl)pyrrolidine-1-carboxamide]	2 mm	–	4 mm	3 mm	8 mm	3 mm	180 to 182 °C	–	–	–
Cc1ccc(NC(=O)N2CCN(C)CC2)cc1 [Compound 16, 4-Methyl-N-(p-tolyl)piperazine-1-carboxamide]	5 mm	3 mm	2 mm	3 mm	5 mm	2 mm	252 to 253 °C	80 µg/mL (≈ 343 µM)	10 µg/mL (≈ 42.9 µM)	MIC (Pseudomonas aeruginosa [7]): 160 µg/mL (≈ 686 µM); MIC (Bacillus subtilis [8]): 160 µg/mL (≈ 686 µM); MIC (Staphylococcus aureus [9]): 320 µg/mL (≈ 1370 µM)
COc1cccc2c1C(=O)c1c(O)c3c(c(O)c1C2=O)C[C@@](O)(C(=O)CO)C[C@@H]3O[C@H]1C[C@H](N)[C@H](O)[C@H](C)O1 [Doxorubicin, doxorubicin, reference compound]	–	–	–	–	–	–	–	–	–	IC50 [14]: 45 ± 0.123 µM; IC50 [11]: 65.1 ± 0.141 µM
C[C@@H]1[C@H](O)[C@@H](C)/C=C/C=C/C=C/C=C/C=C/C=C/C=C/[C@H](O[C@@H]2O[C@H](C)[C@@H](O)[C@H](N)[C@@H]2O)C[C@@H]2O[C@](O)(C[C@@H](O)C[C@@H](O)[C@H](O)CC[C@@H](O)C[C@@H](O)CC(=O)O[C@H]1C)C[C@H](O)[C@H]2C(=O)O [Amphotericin B, reference compound]	–	–	–	5 mm	4 mm	–	–	20 µg/mL (≈ 21.6 µM)	40 µg/mL (≈ 43.3 µM)	–
Cc1ccc(S(=O)(=O)NC(=O)N2CCCC2)cc1 [Compound 9, N-tosylpyrrolidine-1-carboxamide]	2 mm	2 mm	6 mm	2 mm	–	4 mm	228 to 230 °C	–	–	–
O=C(Nc1ccccc1)NC12CC3CC(CC(C3)C1)C2 [Compound 23, 1-(Adamantan-1-yl)-3-phenylurea]	2 mm	–	3 mm	–	3 mm	2 mm	–	–	–	IC50 [14]: 68.6 ± 0.116 µM; cytotoxicity at 100 µM ([14]; MCF7, single dose 100 µM, read-out: Cytotoxicity (%)): ≥ 51%
OC(Cn1cncn1)(Cn1cncn1)c1ccc(F)cc1F [Fluconazole, reference compound]	–	–	–	–	–	–	–	> 400 µg/mL	> 400 µg/mL	–
O=C(Nc1ccccc1)N1CCCC1 [Compound 19, N-phenylpyrrolidine-1-carboxamide]	4 mm	2 mm	2 mm	3 mm	4 mm	2 mm	233 to 235 °C	40 µg/mL (≈ 210 µM)	10 µg/mL (≈ 52.6 µM)	MIC (Pseudomonas aeruginosa [7]): 80 µg/mL (≈ 421 µM); MIC (Bacillus subtilis [8]): 80 µg/mL (≈ 421 µM); MIC (Staphylococcus aureus [9]): 160 µg/mL (≈ 841 µM)
